In patent US20220152085A1, “COMBINATION IMMUNOREGULATION AND USES THEREOF” (Ohio State Innovation Foundation, priority 2019, published 2022):
Counter-ions that a name gives are not always drawn.

System: E.G7-OVA cells
Experiment: Endocytic pathways: cellular uptake of PL1-Alexa-Fluor 647-labeled RNA nanoparticles with endocytic inhibitors, flow cytometry
Type: cell-based
Conditions: inhibitor 0.5 h before nanoparticles, flow cytometry after 3 h, FIG. 13
Procedure: E.G7-OVA cells were treated with 5-(N-Methyl-N-isopropyl)amiloride (EIPA), chlorpromazine hydrochloride (CPZ), or methyl-β-cyclodextrin (MβCD). After 0.5 h, cells were treated with PL1-Alexa-Fluor 647-labeled RNA nanoparticles. After 3 h, cells were analyzed by flow cytometry. All data are from n=3 biologically independent samples and are presented as mean±S.E.M. Statistical significance was analyzed by the two-tailed Student's t-test. *P<0.05.
Biomimetic compounds, phospholipids and glycolipids, are composed of a biomimetic head (phosphate head or glyco head), an ionizable amino core, and multiple hydrophobic tails (FIG. 11). These phospholipid and glycolipid derivatives (PLs and GLs) were synthesized according to previously reported procedures. See, for example, WO/2019/027999. […] Following this synthetic route, PL1-18 and GL1-16 materials were synthesized (FIG. 4C), which were characterized by […] nuclear magnetic resonance (NMR) and mass spectroscopy (MS) (FIG. 4C). Next, PLs and GLs nanoparticles were formulated with firefly luciferase mRNA (FLuc mRNA), and were characterized according to size, surface charge, and mRNA encapsulation efficiency (FIGS. 12A-12C). […]

| Compound | inhibition of cellular uptake of PL1 nanoparticles |
| --- | --- |
| CN(C)CCCN1c2ccccc2Sc2ccc(Cl)cc21 [CPZ, chlorpromazine hydrochloride] | 56% |
| methyl-β-cyclodextrin [MβCD] | 39% |
